Test results as given in US9326985B2, “Heteroaryl pyridone and aza-pyridone amide compounds” (Genentech, Inc., priority 2013, dated 2016).

Columns and labels:
[1] = system: CD69 by B lymphocytes in human whole blood activated with goat F(ab')2 anti-human IgM; assay: CD69 Whole Blood Assay (CD69 Hu Blood FACS); format: cell-based; conditions: Lymphocyte, CD69 positive of CD20 positive cells
Procedure, shortened: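 Heparinized human whole blood from healthy drug-free non-smokers preincubated 30 min at 37 °C with ten-point 3-fold compound dilutions, then stimulated with goat F(ab′)2 anti-human IgM (50 μg/ml final) for 20 h. CD69 on B cells read by flow cytometry as mean fluorescence intensity.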

[2] = target: T1, full length human wildtype Btk (Homo sapiens, UniProt Q06187); assay: Biochemical Btk Assay (BTK LC3K)
T1 construct: V5 (C); 6xHis (C); made in house; host or cells: Sf9 insect cells (baculovirus, pFastBac)
T1 sequence (Q06187 whole entry): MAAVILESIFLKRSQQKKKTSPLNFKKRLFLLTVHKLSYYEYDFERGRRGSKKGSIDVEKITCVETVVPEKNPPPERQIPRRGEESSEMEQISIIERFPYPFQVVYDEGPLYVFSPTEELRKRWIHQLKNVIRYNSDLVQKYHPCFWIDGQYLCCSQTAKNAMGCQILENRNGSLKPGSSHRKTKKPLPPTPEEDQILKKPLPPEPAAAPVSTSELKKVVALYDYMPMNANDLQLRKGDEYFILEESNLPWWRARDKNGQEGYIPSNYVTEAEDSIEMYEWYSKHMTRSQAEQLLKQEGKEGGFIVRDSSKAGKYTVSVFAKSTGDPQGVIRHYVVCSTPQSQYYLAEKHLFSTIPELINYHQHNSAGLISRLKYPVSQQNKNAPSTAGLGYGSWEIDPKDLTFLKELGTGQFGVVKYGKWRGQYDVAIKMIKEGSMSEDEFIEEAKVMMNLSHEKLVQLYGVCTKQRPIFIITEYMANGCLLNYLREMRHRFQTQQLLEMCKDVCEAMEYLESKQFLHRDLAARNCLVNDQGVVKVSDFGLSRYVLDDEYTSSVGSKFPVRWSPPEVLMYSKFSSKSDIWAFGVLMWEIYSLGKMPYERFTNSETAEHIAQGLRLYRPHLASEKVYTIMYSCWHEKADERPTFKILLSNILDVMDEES
Protocol: A generalized procedure for a standard biochemical Btk, Kinase Assay that can be used to test Formula I compounds is as follows. A master mix minus Btk enzyme is prepared containing 1× Cell Signaling kinase buffer (25 mM Tris-HCl, pH 7.5, 5 mM beta-glycerophosphate, 2 mM dithiothreitol, 0.1 mM Na3VO4, 10 mM MgCl2), 0.5 μM Promega PTK Biotinylated peptide substrate 2, and 0.01% BSA. A master mix plus Btk enzyme is prepared containing 1× Cell Signaling kinase buffer, 0.5 μM (micromolar) PTK Biotinylated peptide substrate 2, 0.01% BSA, and 100 ng/well (0.06 mU/well) Btk enzyme. Btk enzyme is prepared as follows: full length human wildtype Btk (accession number NM-000061) with a C-terminal V5 and 6×His tag was subcloned into pFastBac® vector (Invitrogen/Life Technologies) for making baculovirus carrying this epitope-tagged Btk. […] Passage 3 virus is used to infect Sf9 cells to overexpress the recombinant Btk protein. The Btk protein is then purified to homogeneity using Ni-NTA column. […] A solution of 200 μM ATP is prepared in water and adjusted to pH 7.4 with 1N NaOH. A quantity of 1.25 μL (microliter) of compounds in 5% DMSO is transferred to a 96-well ½ area Costar polystyrene plate. Compounds are tested singly and with an 11-point dose-responsive curve (starting concentration is 10 μM; 1:2 dilution). A quantity of 18.75 μL of master mix minus enzyme (as a negative control) and master mix plus enzyme is transferred to appropriate wells in 96-well ½ area costar polystyrene plate. 5 μL of 200 μM ATP is added to that mixture in the 96-well ½ area Costar polystyrene plate for final ATP concentration of 40 μM. The reaction is allowed to incubate for 1 hour at room temperature. The reaction is stopped with Perkin Elmer 1× detection buffer containing 30 mM EDTA, 20 nM SA-APC, and 1 nM PT66 Ab. […] IC50 values are subsequently calculated. Alternatively, the Lanthascreen assay can be used to evaluate Btk activity through quantification of its phosphorylated peptide product. The FRET (Fluorescence Resonance Energy Transfer) that occurs between the fluorescein on the peptide product and the terbium on the detection antibody decreases with the addition of inhibitors of Btk that reduce the phosphorylation of the peptide. In a final reaction volume of 25 uL, Btk (h) (0.1 ng/25 ul reaction) is incubated with 50 mM Hepes pH 7.5, 10 mM MgCl2, 2 mM MnCl2, 2 mM DTT, 0.2 mM NaVO4, 0.01% BSA, and 0.4 uM fluorescein poly-GAT. […] After incubation for 60 minutes at room temperature, the reaction is stopped by the addition of a final concentration of 2 nM Tb-PY20 detection antibody in 60 mM EDTA for 30 minutes at room temperature.

Row | SMILES | IC50 ([1]; Table 2, anti-IgM stimulation) | Ki ([2]; Table 2) | IC50 ([1]; Table 1, anti-IgM stimulation) | Ki ([2]; Table 1)
1 | CN(C)C(=O)C1C[C@@H]1C(=O)Nc1cc(-c2ccnc(-n3ncc4cc(C(C)(C)C)cc(F)c4c3=O)c2CO)cn(C)c1=O (single isomer, unassigned) [Compound 171, N2-[5-[2-(6-tert-butyl-8-fluoro-1-oxo-phthalazin-2-yl)-3-(hydroxymethyl)-4-pyridyl]-1-methyl-2-oxo-3-pyridyl]-N1,N1-dimethyl-cyclopropane-1,2-dicarboxamide] | > 4800 nM | 91.5 nM | – | –
2 | Cn1cc(-c2cccc(N3CCc4c(cc5n4CC(C)(C)C5)C3=O)c2CO)cc(NC(=O)C2CC2)c1=O [Compound 142, N-[5-[3-(7,7-dimethyl-4-oxo-1,2,6,8-tetrahydropyrido[3,4-b]pyrrolizin-3-yl)-2-(hydroxymethyl)phenyl]-1-methyl-2-oxo-3-pyridyl]cyclopropanecarboxamide] | 70 nM | 1.8 nM | – | –
3 | Cn1cc(-c2ccnc(N3CCn4c(cc5c4CC(C)(C)C5)C3=O)c2CO)cc(NC(=O)[C@H]2CC23CCC3)c1=O (single isomer, unassigned) [Compound 147] | 910 nM | 4.8 nM | – | –
4 | Cn1cc(-c2ccnc(N3CCc4c(sc5c4CC(C)(C)C5)C3=O)c2CO)cc(NC(=O)C2CC2)c1=O [Compound 131, N-[5-[2-(7,7-dimethyl-4-oxo-1,2,6,8-tetrahydrocyclopenta[3,4]thieno[1,3-c]pyridin-3-yl)-3-(hydroxymethyl)-4-pyridyl]-1-methyl-2-oxo-3-pyridyl]cyclopropanecarboxamide] | 240 nM | 7.06 nM | – | –
5 | CN1CC[C@@]2(C[C@@H]2C(=O)Nc2cc(-c3ccnc(-n4ncc5cc(C(C)(C)C)cc(F)c5c4=O)c3CO)cn(C)c2=O)C1 (single isomer, unassigned) [Compound 174] | 1500 nM | 7.2 nM | – | –
6 | Cn1cc(-c2ccnc(N3CCc4cc(OC(F)(F)F)ccc4C3=O)c2CO)cc(NC(=O)C2CC2)c1=O [Compound 158, N-[5-[3-(hydroxymethyl)-2-[1-oxo-6-(trifluoromethoxy)-3,4-dihydroisoquinolin-2-yl]-4-pyridyl]-1-methyl-2-oxo-3-pyridyl]cyclopropanecarboxamide] | > 4400 nM | 262 nM | – | –
7 | CN1CC[C@]2(C[C@H]2C(=O)Nc2cc(-c3ccnc(-n4ncc5cc(C(C)(C)C)cc(F)c5c4=O)c3CO)cn(C)c2=O)C1 (single isomer, unassigned) [Compound 169] | > 4800 nM | 38.4 nM | – | –
8 | COCC(=O)Nc1cc(-c2ccnc(-n3ncc4cc(C(C)(C)C)cc(F)c4c3=O)c2CO)cn(C)c1=O [Compound 156, N-[5-[2-(6-tert-butyl-8-fluoro-1-oxo-phthalazin-2-yl)-3-(hydroxymethyl)-4-pyridyl]-1-methyl-2-oxo-3-pyridyl]-2-methoxy-acetamide] | > 4500 nM | 21 nM | – | –
9 | C[C@@H]1C[C@H]1C(=O)Nc1cc(-c2ccnc(N3CCn4c(cc5c4CC(C)(C)C5)C3=O)c2CO)cn(C)c1=O [Compound 138, (1R,2R)—N-[5-[2-(7,7-dimethyl-4-oxo-1,2,6,8-tetrahydrocyclopenta[3,4]pyrrolo[3,5-b]pyrazin-3-yl)-3-(hydroxymethyl)-4-pyridyl]-1-methyl-2-oxo-3-pyridyl]-2-methyl-cyclopropanecarboxamide] | 2600 nM | 43.8 nM | – | –
10 | CCOC1C[C@H]1C(=O)Nc1cc(-c2ccnc(N3CCn4c(cc5c4CC(C)(C)C5)C3=O)c2CO)cn(C)c1=O (single isomer, unassigned) [Compound 143] | 2200 nM | 53 nM | – | –
11 | CN1CCC2(CC1)C[C@@H]2C(=O)Nc1cc(-c2ccnc(-n3ncc4cc(C(C)(C)C)cc(F)c4c3=O)c2CO)cn(C)c1=O (single isomer, unassigned) [Compound 166] | 1600 nM | 5.4 nM | – | –
12 | Cn1cc(-c2ccnc(N3CCc4c(cc5n4CC(C)(C)C5)C3=O)c2CO)cc(NC(=O)C2CC2)c1=O [Compound 137, N-[5-[2-(7,7-dimethyl-4-oxo-1,2,6,8-tetrahydropyrido[3,4-b]pyrrolizin-3-yl)-3-(hydroxymethyl)-4-pyridyl]-1-methyl-2-oxo-3-pyridyl]cyclopropanecarboxamide] | 616 nM | 28.5 nM | – | –
13 | Cn1cc(-c2ccnc(N3CCc4cc(OC(F)F)cc(F)c4C3=O)c2CO)cc(NC(=O)C2CC2)c1=O [Compound 144, N-[5-[2-[6-(difluoromethoxy)-8-fluoro-1-oxo-3,4-dihydroisoquinolin-2-yl]-3-(hydroxymethyl)-4-pyridyl]-1-methyl-2-oxo-3-pyridyl]cyclopropanecarboxamide] | > 5400 nM | 234 nM | – | –
14 | CCOC1C[C@@H]1C(=O)Nc1cc(-c2ccnc(N3CCn4c(cc5c4CC(C)(C)C5)C3=O)c2CO)cn(C)c1=O (mixture of isomers) [Compound 145, (1S)—N-[5-[2-(7,7-dimethyl-4-oxo-1,2,6,8-tetrahydrocyclopenta[3,4]pyrrolo[3,5-b]pyrazin-3-yl)-3-(hydroxymethyl)-4-pyridyl]-1-methyl-2-oxo-3-pyridyl]-2-ethoxy-cyclopropanecarboxamide] | 636 nM | 11 nM | – | –
15 | Cn1cc(-c2ccnc(N3CCn4c(cc5c4CC(C)(C)C5)C3=O)c2CO)cc(NC(=O)c2ccccc2)c1=O [Compound 114, N-[5-[2-(7,7-dimethyl-4-oxo-1,2,6,8-tetrahydrocyclopenta[3,4]pyrrolo[3,5-b]pyrazin-3-yl)-3-(hydroxymethyl)-4-pyridyl]-1-methyl-2-oxo-3-pyridyl]benzamide] | – | – | > 5400 nM | 236 nM
16 | Cn1cc(-c2ccnc(N3CCn4c(cc5c4CC(C)(C)C5)C3=O)c2CO)cc(NC(=O)[C@@H]2CC23CC3)c1=O (single isomer, unassigned) [Compound 140] | 1400 nM | 5.2 nM | – | –
17 | CN1CC[C@@]2(C[C@H]2C(=O)Nc2cc(-c3ccnc(-n4ncc5cc(C(C)(C)C)cc(F)c5c4=O)c3CO)cn(C)c2=O)C1 (single isomer, unassigned) [Compound 175] | > 4800 nM | 7.6 nM | – | –
18 | CCC(=O)Nc1cc(-c2ccnc(-n3ncc4cc(C(C)(C)C)cc(F)c4c3=O)c2CO)cn(C)c1=O [Compound 126, N-[5-[2-(6-tert-butyl-8-fluoro-1-oxo-phthalazin-2-yl)-3-(hydroxymethyl)-4-pyridyl]-1-methyl-2-oxo-3-pyridyl]propanamide] | – | – | 527 nM | 7.01 nM
19 | Cn1cc(-c2cccc(N3CCc4c(cc5n4CCCC5)C3=O)c2CO)cc(NC(=O)C2CC2)c1=O [Compound 139, N-[5-[2-(hydroxymethyl)-3-(1-oxo-3,4,6,7,8,9-hexahydropyrido[3,4-b]indolizin-2-yl)phenyl]-1-methyl-2-oxo-3-pyridyl]cyclopropanecarboxamide] | 689 nM | 7.8 nM | – | –
